Results published in patent publication US6348487B1, “2-phenyl benzimidazole derivatives as MCP-1 antagonists” (Millennium Pharmaceuticals, Inc., priority 1996, dated 2002).
Several values for one entry are separate records, joined by “and”; a condition that tells them apart may be missing. Equal entries are not always repeated.

Target: T1, MCP-1 receptor (Homo sapiens, UniProt P41597)
T1 construct: host or cells: THP-1 (human monocytic cell line), membrane preparation
T1 sequence (P41597 1-360 isoform P41597-2): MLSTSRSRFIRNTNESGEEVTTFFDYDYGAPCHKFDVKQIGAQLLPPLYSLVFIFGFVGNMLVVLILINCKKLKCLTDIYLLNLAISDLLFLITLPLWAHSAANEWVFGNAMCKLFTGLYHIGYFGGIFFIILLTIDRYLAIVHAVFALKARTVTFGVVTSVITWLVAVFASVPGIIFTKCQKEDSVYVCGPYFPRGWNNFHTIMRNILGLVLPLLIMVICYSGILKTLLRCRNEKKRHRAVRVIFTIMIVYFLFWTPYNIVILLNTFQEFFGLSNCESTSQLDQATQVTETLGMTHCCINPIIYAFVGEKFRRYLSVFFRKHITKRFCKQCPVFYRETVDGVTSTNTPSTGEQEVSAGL
Test: MCP-1 Receptor Binding Assay (I125-labeled MCP-1, THP-1 cell membranes)
Details: THP-1 membranes, 0.2 nM I125-labeled MCP-1
Experimental: Membranes used in the MCP-1 binding assay were prepared from THP-1 cells (human monocytic cell line source—American Type Culture Collection, Tumor Immunology Bank #202, Rockville, Md., accession no. ATCC TIB 202). Cells were harvested by centrifugation and washed twice in ice-cold PBS (phosphate-buffered saline) and the cell pellet was frozen at −80° C. in some cases. Cells were resuspended in ice-cold lysis buffer 5 mM HEPES (2-(4N-[2-hydroxyethyl]piperazin-1-yl)-N′-(2-ethanesulfonic acid), pH 7.5, 2 mM EDTA (ethylenediaminetetraacetic acid), 5 μg/mL each leupeptin, aprotinin, chymostatin (protease inhibitors), and 100 μg/mL PMSF (phenylmethane sulfonyl fluoride—also a protease inhibitor)) at a concentration of 5×10^7 cells/mL. The cell suspension was dounced 10-15 times using the B pestle (small pestle of tissue grinder—clearance is 0.07 mm; source—Fisher Scientific) on ice. Nuclei and debris were removed by centrifugation at 500-1000×g for 10 minutes at 4° C. The supernatant was transferred to a fresh tube and centrifuged at 25,000×g for 30 minutes at 4° C. The supernatant was aspirated and the pellet was resuspended in freezing buffer (10 mM HEPES, pH 7.5, 300 mM sucrose, 1 μg/mL each leupeptin, aprotinin, chymostatin, and 10 μg/mL PMSF) using a minihomogenizer until all clumps were resolved. Membranes were aliquoted and frozen at minus 70-85° C. until needed. Typical binding assays used 10-20 μg/well of total membrane protein as determined with a standard protein assay (e.g. Bradford protein assay, BioRad, Richmond, Calif.).
For binding, 10-20 μg of total membrane protein were included in the binding reaction along with 0.2 nM I^125-labeled MCP-1 (Amersham, Arlington Heights, Ill.) with or without unlabeled competitor MCP-1 (Peprotech, Rocky Hill, N.J.) (at 500 nM). Binding reactions were performed in a final volume of 100 μl in a binding buffer containing 10 mM HEPES, pH 7.2, 1 mM CaCl2, 5 mM MgCl2, 0.5% BSA (bovine serum albumin). After 30-60 minutes at room temperature, the binding reactions were filtered through GF/C filters (Whatman glass fiber filters, Type C) or GF/B unifilter plates (Packard) which had been pre-soaked with 0.3% polyethyleneimine and washed twice with binding buffer containing 0.5 M NaCl. Filters were dried and counted in a Beta-Plate scintillation counter using standard scintillation fluid. Final concentration of compound in the binding assay ranged from 0.05-100 μM. Compounds were dissolved in DMSO (dimethyl sulfoxide). Final concentrations of DMSO in the binding were kept constant at 0.5%.
IC50s were calculated using a non-linear 3-parameter logistic curve fit. IC50 means the concentration at which 50% inhibition is achieved. Negative controls contained the same amount of DMSO vehicle as used in wells containing compound. Positive control contained 250-500 nM cold competitor MCP-1 in DMSO vehicle. Non-specific binding (the level of bound ^125I-labeled MCP-1 in the presence of […] unlabeled MCP-1) was subtracted from all data prior to analysis.

IC50 | Compound
10.9 µM | CN(CCN1CCCCC1)c1ccc(-c2nc3ccccc3[nH]2)cc1
15.5 µM | CN(CCN1CCCCC1)c1ccc(-c2nc3ccc(C(F)(F)F)cc3[nH]2)cc1
3.1 µM | CN(CCN1CCCCC1)c1ccc(-c2nc3ccc(C(C)(C)C)cc3[nH]2)cc1
8.6 µM | CN(CCN1CCCCC1)c1ccc(-c2nc3ccc(F)cc3[nH]2)cc1
12.1 µM | CN(CCN1CCCCC1)c1ccc(-c2nc3cc4ccccc4cc3[nH]2)cc1
20.7 µM | CN(CCN1CCCCC1)c1ccc(-c2nc3cc4c(cc3[nH]2)Cc2ccccc2-4)cc1
11.5 µM | CCCCc1ccc2nc(-c3ccc(N(C)CCN4CCCCC4)cc3)[nH]c2c1
15.1 µM | CN(CCN1CCCCC1)c1ccc(-c2nc3ccc(-c4ccccc4)cc3[nH]2)cc1
5.1 µM | CN(CCN1CCCCC1)c1ccc(-c2nc3cc(Sc4ccc(Cl)c(Cl)c4)ccc3[nH]2)cc1
11.3 µM | CN(CCN1CCCCC1)c1ccc(-c2nc3ccc(C(=O)c4ccccc4)cc3[nH]2)cc1
15.4 µM | CN(CCN1CCCCC1)c1ccc(-c2nc3ccc(OCc4ccccc4)cc3[nH]2)cc1
11.9 µM | c1ccc(-c2ccc3nc(-c4ccc(NCCN5CCCCC5)cc4)[nH]c3c2)cc1
6.4 µM | CN(CCN1CCCCC1)c1ccc(-c2nc3ccc(Oc4ccc(Cl)c(Cl)c4)cc3[nH]2)cc1
3.2 µM | CN(CCN1CCCCC1)Cc1ccc(-c2nc3cc(Cl)c(Cl)cc3[nH]2)cc1
6.7 µM | CN(CCN1CCCCC1)c1ccc(-c2nc3ccc(NCCCCCc4ccccc4)cc3[nH]2)cc1
9.9 µM | CN(CCN1CCCCC1)c1ccc(-c2cc3cc(Cl)ccc3[nH]2)cc1
4.3 µM | CN(CCN1CCCCC1)c1ccc(-c2nc3ccc(Cc4ccccc4)cc3[nH]2)cc1
6.8 µM | CCN(CC)CCN(C)c1ccc(-c2nc3cc(Cl)c(Cl)cc3[nH]2)cc1
13.4 µM | CN(CCN1CCCCC1)c1ccc(-c2nc3cc(Cl)c(Cl)cc3[nH]2)cc1 [drawing 9]
5.9 µM | CN(CCN1CCCCC1)c1ccc(-c2nc3ccc(Cl)cc3[nH]2)cc1 [drawing 11]
9.6 µM | CN(CCN1CCCCC1)c1ccc(-c2nc3cc(Cl)c(F)cc3[nH]2)cc1 [drawing 12]
8.7 µM | Cc1ccc2nc(-c3ccc(N(C)CCN4CCCCC4)cc3)[nH]c2c1 [drawing 13]
6.3 µM | Cc1cc2nc(-c3ccc(N(C)CCN4CCCCC4)cc3)[nH]c2cc1C [drawing 14]

Compound | IC50
CCN(CC)CCN(CCN(CC)CC)c1ccc(-c2nc3cc(Cl)c(Cl)cc3[nH]2)cc1 [drawing 8] | 11.1 µM

Tested on: T lymphocyte blast cells (CD3-Blasts)
Test: CD3-Blast Chemotaxis Assay (transendothelial migration to MCP-1)
Format: cell-based, human
Details: 10 μM compound; MCP-1 about 10 nM; ECV304 endothelial coated Transwells
Excerpt: Recombinant human MCP-1 was obtained from Peprotech (Rockey Hill, N.J.). T lymphocyte blast cells (CD3-Blasts) were generated by standard protocols (Coligan, J. E., A. M. Kruisbeek, D. H. Macgulies, E. M. Shevach, and W. Strober, editors. 1992. Current Protocols in Immunology. John Wiley and Sons, New York 7.1.2, 7.10.1-7.10. 10). Briefly, human peripheral blood mononuclear cells (PBMC) were isolated from heparinized venous blood by Percoll density gradient centrifugation (d=1.088) at room temperature. RBCs were removed by hypotonic lysis or dextran sedimentation. Blast cells were generated by incubating 2×10^6 PBMC in 24-well tissue culture plates that were coated with 2.5 μg of an anti-CD3 monoclonal antibody (identified as TR66, a gift from Dr. A. Lanzivecchia; similar monoclonal antibody is HIT3a, from Parmingen #30111A) at 37° C. for 48 to 72 hours, and then transferring 12 wells to T25 or T75 flasks with RPMI (Roswell Park Memorial Institute 1640, a growth cell medium available from Gibco/RBL, Inc., New York)+10% FCS (fetal calf serum)+50 units/ml IL-2. The cells are expanded and cultured for up to 3 weeks. CD3-Blast chemotaxis was assessed no sooner than 3 to 4 days after transfer to the IL-2 containing medium using a modification of a transendothelial migration assay (Carr. M. W., S. J. Roth, B. Luther, S. S. Rose, and T. A. Springer. 1994. Monocyte chemoattractant protein 1 acts as a T-lymphocyte chemoattractant. Proc. Natl. Acad. Sci. USA 91:3652-6). The endothelial cells used for this assay were the endothelial cell line ECV304. (ECV304 was from the European Collection of Animal Cell Cultures, Porton Downs, UK, assession #92091712). Endothelial cells were cultured on 6.5 mm diameter Transwell culture inserts (Costar) with a […] pore size. […] Background migration was determined by counting cells that migrated in the absence of MCP-1 in the lower chamber. […] The percent inhibition by compounds of directed migration was determined by the following formula: [drawing 32] […]

Compound | % Inhibition of Chemotaxis at 10 μM
CN(CCN1CCCCC1)c1ccc(-c2nc3cc(Cl)c(Cl)cc3[nH]2)cc1 [Example 2, N-[4-(5 ,6-dichloro-1H-benzimidazol-2-yl)-phenyl]-N-methyl-N-(2-piperidin-1-yl-ethyl)-amine] | 100% and 102%
N-[4-(5,6-dichloro-1H-benzimidazol-2-yl)-phenyl]-N-(2-diethylaminoethyl)-N-methyl, N-diethyl-ethane-1,2-diamine [Example 3] | 95% and 102%

Tested on: not given
Test: not given
Details: not given

melting point | Compound
273 °C | COc1ccc2nc(-c3ccc(N(C)CCN4CCCCC4)cc3)[nH]c2c1.Cl.Cl
165 to 167 °C | CN(CCN1CCCCC1)c1ccc(-c2nc3cc(Cl)c(Cl)cc3[nH]2)cc1 [Example 2, N-[4-(5 ,6-dichloro-1H-benzimidazol-2-yl)-phenyl]-N-methyl-N-(2-piperidin-1-yl-ethyl)-amine]
196 °C | CN(CCN1CCCCC1)c1ccc(-c2nc3ccc(Cl)cc3[nH]2)cc1 [Example 4, [4-[6-Chloro-1H-benzoimidazol-2-yl)-phenyl]-methyl-(2-piperidin-1-yl-ethyl)-amine]
167 to 168 °C | CN(CCN1CCCCC1)c1ccc(-c2nc3cc(Cl)c(F)cc3[nH]2)cc1 [Example 5, [4-(5-Chloro-6-fluoro-1H-benzoimidazol-2-yl)-phenyl]-methyl-(2-piperidin-1-yl-ethyl)-amine]
165 °C | Cc1ccc2nc(-c3ccc(N(C)CCN4CCCCC4)cc3)[nH]c2c1 [Example 6, Methyl-[4-(6-methyl-1H-benzoimidazol-2-yl)-phenyl]-(2-piperidin-1-yl-ethyl)-amine]
194 to 196 °C | Cc1cc2nc(-c3ccc(N(C)CCN4CCCCC4)cc3)[nH]c2cc1C [Example 7, [4-(5,6-Dimethyl-1H-benzoimidazol-2-yl)-phenyl]-methyl-(2-piperidin-1-yl-ethyl)-amine]
164 °C | CN(CCN1CCCCC1)c1ccc(-c2nc3ccc(Cl)c(Cl)c3[nH]2)cc1 [Example 8, [4-(6,7-Dichloro-1H-benzoimidazol-2-yl)-phenyl]-methyl-(2-piperidin-1-yl-ethyl)-amine]
192 °C | CN(CCN1CCCCC1)c1ccc(C2=Nc3ccc(Cl)cc3C2)cc1 [Example 10, [4-(5-Chloro-3H-indol-2-yl)-phenyl]-methyl-(2-piperidin-1-yl-ethyl)-amine]
